Several values for one entry are separate records, joined by “and”; a condition that tells them apart may be missing. Equal values may be shown once.
What was measured:
[1] = tested on: Venturia inaequalis; assay: In vivo preventive test on Venturia test (apples); settings: evaluated 10 days after inoculation
Protocol: To produce a suitable preparation of active compound, 1 part by weight of active compound is mixed with the stated amounts of solvent and emulsifier, and the concentrate is diluted with water to the desired concentration. To test for preventive activity, young plants are sprayed with the preparation of active compound at the stated rate of application. After the spray coating has dried on, the plants are inoculated with an aqueous conidia suspension of the causal agent of apple scab (Venturia inaequalis) and then remain for 1 day in an incubation cabinet at approximately 20° C. and a relative atmospheric humidity of 100%. The plants are then placed in a greenhouse at approximately 21° C. and a relative atmospheric humidity of approximately 90%.
The test is evaluated 10 days after the inoculation. 0% means an efficacy which corresponds to that of the untreated control, while an efficacy of 100% means that no disease is observed.

[2] = tested on: Alternaria solani; assay: In vivo preventive test on Alternaria test (tomatoes); settings: evaluated 3 days after inoculation
Protocol: (§1) To produce a suitable preparation of active compound, 1 part by weight of active compound is mixed with the stated amounts of solvent and emulsifier, and the concentrate is diluted with water to the desired concentration. To test for preventive activity, young plants are sprayed with the preparation of active compound at the stated rate of application. After the spray coating has dried on, the plants are inoculated with an aqueous spore suspension of Alternaria solani. The plants are then placed in an incubation cabinet at approximately 20° C. and a relative atmospheric humidity of 100%.
The test is evaluated 3 days after the inoculation. 0% means an efficacy which corresponds to that of the untreated control while an efficacy of 100% means that no disease is observed.

[3] = tested on: Blumeria graminis f.sp. hordei; assay: In vivo preventive Blumeria test (barley); settings: evaluated 7 days after inoculation
Protocol: To produce a suitable preparation of active compound, 1 part by weight of active compound or active compound combination is mixed with the stated amounts of solvent and emulsifier, and the concentrate is diluted with water to the desired concentration. To test for preventive activity, young plants are sprayed with the preparation of active compound or active compound combination at the stated rate of application. After the spray coating has been dried, the plants are dusted with spores of Blumeria graminis f.sp. hordei. The plants are placed in the greenhouse at a temperature of approximately 18° C. and a relative atmospheric humidity of approximately 80% to promote the development of mildew pustules.
(§2) The test is evaluated 7 days after the inoculation. 0% means an efficacy which corresponds to that of the untreated control, while an efficacy of 100% means that no disease is observed.

[4] = tested on: Phakopsora pachyrhizi; assay: In vivo preventive test on Phakopsora test (soybeans); settings: evaluated 7 days after inoculation
Protocol: as §1, with “the causal agent of soybean rust (Phakopsora pachyrhizi) and stay for 24 h without light” for “Alternaria solani. The plants are then placed”, “24°” for “20°”, “95%. The plants remain in the incubation cabinet at approximately 24° C. and a relative atmospheric humidity of approximately 80% and a day/night interval of 12h.” for “100%.”
as §2

[5] = tested on: Botrytis cinerea; assay: In vivo preventive test on Botrytis test (beans); settings: lesion size evaluated 2 days after inoculation
Protocol: To produce a suitable preparation of active compound, 1 part by weight of active compound is mixed with the stated amounts of solvent and emulsifier, and the concentrate is diluted with water to the desired concentration. To test for preventive activity, young plants are sprayed with the preparation of active compound. After the spray coating has dried on, 2 small pieces of agar covered with growth of Botrytis cinerea are placed on each leaf. The inoculated plants are placed in a darkened chamber at 20° C. and a relative atmospheric humidity of 100%.
2 days after the inoculation, the size of the lesions on the leaves is evaluated. 0% means an efficacy which corresponds to that of the untreated control, while an efficacy of 100% means that no disease is observed.

[6] = tested on: Puccinia triticina; assay: In vivo preventive Puccinia triticina test (wheat); settings: evaluated 8 days after inoculation
Protocol: (§3) To produce a suitable preparation of active compound, 1 part by weight of active compound or active compound combination is mixed with the stated amounts of solvent and emulsifier, and the concentrate is diluted with water to the desired concentration. To test for preventive activity, young plants are sprayed with the preparation of active compound or active compound combination at the stated rate of application. After the spray coating has been dried, the plants are sprayed with a spore suspension of Puccinia triticina. The plants remain for 48 hours in an incubation cabinet at approximately 20° C. and a relative atmospheric humidity of approximately 100%. The plants are placed in the greenhouse at a temperature of approximately 20° C. and a relative atmospheric humidity of approximately 80%.
(§4) The test is evaluated 8 days after the inoculation. 0% means an efficacy which corresponds to that of the untreated control, while an efficacy of 100% means that no disease is observed.

[7] = tested on: Pyrenophora teres; assay: In vivo preventive Pyrenophora teres test (barley); settings: evaluated 8 days after inoculation
Protocol: as §3, with “Pyrenophora teres.” for “Puccinia triticina.”
as §4

[8] = tested on: Septoria tritici; assay: In vivo preventive Septoria tritici test (wheat); settings: evaluated 21 days after inoculation
Protocol: as §3, with “suspension of Septoria tritici. The plants” for “suspension of Puccinia triticina. The plants”, “of approximately 100% and afterwards for 60 hours at approximately 15° C. in a translucent incubation cabinet at a relative atmospheric humidity of approximately 100%. The” for “of approximately 100%. The”, “of approximately 15° C. and” for “of approximately 20° C. and”
The test is evaluated 21 days after the inoculation. 0% means an efficacy which corresponds to that of the untreated control, while an efficacy of 100% means that no disease is observed.

[9] = tested on: Leptosphaeria nodorum; assay: In vivo preventive Leptosphaeria nodorum test (wheat); settings: 25 ppm a.i., evaluated 8 days after inoculation
Protocol: as §3, with “suspension of Leptosphaeria nodorum. The plants” for “suspension of Puccinia triticina. The plants”, “of approximately 25° C. and” for “of approximately 20° C. and”
as §4

Row | Compound | Efficacy in % found ([1]; 0.25 ppm a.i.) | Efficacy in % found ([1]; 0.5 ppm a.i.) | Efficacy in % found ([1]; 1 ppm a.i.) | Efficacy in % found ([2]; 0.25 ppm a.i.) | Efficacy in % found ([2]; 0.5 ppm a.i.) | Efficacy in % found ([2]; 1 ppm a.i.) | Efficacy in % found ([3]; 50 ppm a.i.) | Efficacy in % found ([4]; 0.5 ppm a.i.) | Efficacy in % found ([5]; 0.25 ppm a.i.) | Efficacy in % found ([5]; 0.5 ppm a.i.) | Efficacy in % found ([6]; 25 ppm a.i.) | Efficacy in % found ([7]; 25 ppm a.i.) | Efficacy in % found ([7]; 50 ppm a.i.) | Efficacy in % found ([7]; 100 ppm a.i.) | Efficacy in % found ([4]; 0.25 ppm a.i.) | Efficacy in % found ([5]; 1 ppm a.i.) | Efficacy in % found ([4]; 1 ppm a.i.) | also measured
1 | CCC[C@@H]1CC(C)(C)c2cccc(NC(=O)c3cccnc3C(F)F)c21 [(I-6), 2-(difluoromethyl)-N-[(3R)-1,1-dimethyl-3-propyl-2,3-dihydro-1H-inden-4-yl]nicotinamide] | 0% | 5% | 10% | 15% | 23% | 45% | 40% | 92% | 0% | 0% | 90% | – | – | – | – | – | – | –
2 | CCC1CC(C)(C)c2cccc(NC(=O)c3cccnc3C(F)F)c21 (stereo not shown) [(I-3), 2-(difluoromethyl)-N-(3-ethyl-1,1-dimethyl-2,3-dihydro-1H-inden-4-yl)nicotinamide] | – | 11% | – | 15% | 45% | 45% | 29% | 71% | 0% | 4% | – | 13% | 38% | 50% | 24% | 0% | – | Efficacy in % found ([8]; 25 ppm a.i.): 17%; Efficacy in % found ([8]; 50 ppm a.i.): 83%; Efficacy in % found ([3]; 100 ppm a.i.): 57%
3 | CC1CC(C)(C)c2cccc(NC(=O)c3cn(C)nc3C(F)F)c21 (stereo not shown) [1.032, 3-(difluoromethyl)-1-methyl-N-(1,1,3-trimethyl-2,3-dihydro-1H-inden-4-yl)-1H-pyrazole-4-carboxamide, reference compound] | – | 0% | – | – | 0% | 15% and 8% | – | 0% | 18% | 0% | – | – | – | – | 0% | – | 0% | –
4 | CCCC1CC(C)(C)c2cccc(NC(=O)c3cccnc3C(F)F)c21 (stereo not shown) [(I-5), 2-(difluoromethyl)-N-(1,1-dimethyl-3-propyl-2,3-dihydro-1H-inden-4-yl)nicotinamide] | 0% | 0% | 15% | 0% | 8% | 15% | – | 84% | – | – | 50% | 0% | 0% | 50% | 78% | 0% | 85% | –
5 | CC[C@@H]1CC(C)(C)c2cccc(NC(=O)c3cccnc3C(F)F)c21 [(I-4), 2-(difluoromethyl)-N-[(3R)-3-ethyl-1,1-dimethyl-2,3-dihydro-1H-inden-4-yl]nicotinamide] | – | 12% | 21% | 23% | 30% | 55% | – | – | – | – | – | 22% | 33% | – | 35% | – | 87% | Efficacy in % found ([7]; 12.5 ppm a.i.): 22%; Efficacy in % found [9]: 0%; Efficacy in % found ([3]; 25 ppm a.i.): 0%; Efficacy in % found ([6]; 12.5 ppm a.i.): 80%
6 | Cn1cc(C(=O)Nc2ccccc2-c2cc(F)c(F)c(F)c2)c(C(F)F)n1 [1.008, fluxapyroxad, reference compound] | – | 8% and 10% | – | 15% and 8% | 45% | 55% and 78% | – | 0% | – | – | – | – | – | – | 9% and 0% | 8% and 0% | 0% | –
